The text below walks through data of US20030118649A1, “Drug delivery devices and methods” (priority 2001, published 2003).

Data set [1] can be described thus: Structural integrity of doxorubicin after millirod fabrication (NMR). The format is physicochemical. The conditions noted are these: compression-heat molding, 90° C., 2 hours.
Protocol: These devices are prepared as a monolithic system using a compression-heat-molding procedure that has been developed. (Qian, F., Szymanski, A. and Gao, J. (2001) J. Biomed. Mater. Res. 55, 512-522.) Briefly, doxorubicin solution (2 mg/mL, also containing 0.9% NaCl) from Bedford Laboratories is first dialyzed in distilled water to remove the NaCl. […] The well-mixed particles are placed in a Teflon tube and molded into a polymer millirod at a compression pressure of 4.6×10^6 Pa and a fabrication temperature at 90° C. for 2 hours.
Determination of the structural integrity of released doxorubicin. Released doxorubicin in PBS is desalted by gel filtration column chromatography (G-10 column, Pharmacia). Samples are lyophilized and characterized by ^1H and ^13C nuclear magnetic resonance (NMR) and mass spectrometry to examine their structural integrity. In NMR analysis, lyophilized agents are dissolved in deuterated methanol and spectrum will be obtained on a 300 MHz ^1H NMR instrument (Bruker). The chemical shifts of the released agents are compared to the pure compound to detect possible structural decomposition.
A further data set deals with VX-2 cells. The conditions noted are these: Ridge et al. 1988; cited from earlier work.
Data set [2] in a line: Fluorescence imaging of doxorubicin distribution in rabbit livers after millirod implantation. The conditions noted are these: in vivo. On the procedure: In accordance with the present invention, we developed a fluorescence imaging method to analyze doxorubicin distribution in rabbit liver tissues. First, we determined the calibration curve to correlate fluorescence intensity with doxorubicin concentration in liver tissues. Second, we estimated the sensitivity limit (0.6 μg/g of liver tissue) for doxorubicin detection by this method. This value is well below the cytotoxic concentrations of doxorubicin to VX-2 cells (˜6.4 μg/g). (Ridge, J. A., Collin, C., Bading, J. R., Hancock, C., Conti, P. S., Daly, J. M. and Raaf, J. H. (1988) Cancer Res 48(16), 4584-7. Third, we used this method to quantify the dynamics of drug distribution in ablated and non-ablated rabbit livers over time. The detailed experimental procedure of the fluorescence imaging method is described below.
FIG. 14 compares the 2D doxorubicin distribution profiles between non-ablated and thermoablated liver tissues. In this set of experiments, a monolithic millirod with burst release kinetics (millirod (a) in FIG. 2) was implanted in either non-ablated or thermoablated livers. […] White dashed lines in the figures represent the ablated-normal tissue boundary, which was obtained by comparing the fluorescence image with an optical image of histology slides where this boundary is well-defined (see next section).

Turning to `COc1cccc2c1C(=O)c1c(O)c3c(c(O)c1C2=O)C[C@@](O)(C(=O)CO)C[C@@H]3O[C@H]1C[C@H](N)[C@H](O)[C@H](C)O1` [doxorubicin], in data set [1], the “structure of doxorubicin after fabrication” value is “remained intact”. Besides, in the data set with VX-2 cells, the “cytotoxic concentration of doxorubicin” value was approximately 6.4 µg/g. This compound also returned a concentration at 24 h in data set [2] of 50000 ng/g.
